In article PMC10857328, “Utilization of Biopolymer-Based Lutein Emulsion as an Effective Delivery System to Improve Lutein Bioavailability in Neonatal Rats” (Nutrients, 2024):

Assay: Acute dosing study: serum lutein kinetics, pharmacokinetic parameters and bioavailability
Assay type: in vivo, neonatal Sprague-Dawley rats
Conditions: 10 mg/kg body weight of lutein; for Serum lutein concentration: P10 pups
Method: To determine the bioavailability of lutein in neonatal Sprague-Dawley rats, an acute dosing study was conducted. The procedure was approved by the Institutional Animal Care and Use Committee of the University of Alabama (Number: 21-08-4864, 23 September 2021). On postnatal day 10 (P10), neonatal rats were randomly selected from litters and received a single dose of either free lutein (i.e., lutein ester dissolved in olive oil) or lutein emulsion, both containing 10 mg/kg body weight of lutein. The dose was administered to the pup’s mouth via a pipette. The concentration of lutein ester in the oil phase was 0.004 g/mL. The lutein dosage was selected based on our pilot study and previous studies. It is higher than the dosage used in human newborns but is considered acceptable and safe to be used in pharmacokinetic studies in rodent models. At 0.5 h, 1 h, 2 h, 4 h, 6 h, 12 h, and 24 h after dosing, pups (n = 3/time point/group) were euthanized, and blood, liver, spleen, brain, and eye were collected. Serum was obtained by centrifuging blood samples and tissues were stored at −80 °C until time of analysis. A group of rat pups (n = 3) not receiving treatments were used to measure the baseline lutein concentrations. Throughout the study, maternal rats consumed a purified diet with no lutein (D19120501, Research Diets Inc, New Brunswick, NJ, USA) (Table 1).
Serum and tissue lutein concentration was determined using an ultra-performance liquid chromatography (UPLC) system (Waters, Milford, MA, USA) equipped with a photo-diode array detector (PDA)/MS/MS, according to our well-established methods with slight modification. As for the serum, 100 μL of the sample was incubated with 2 mL of 100% ethanol at room temperature for an hour for lipid extraction. For the tissues, ~0.1 g of the sample was weighed, homogenized, and incubated with 2 mL of 100% ethanol at room temperature for an hour. An amount of 1 mL of 5% (w/v) potassium hydroxide was added to the sample and incubated in a water bath at 60 °C for 45 min for saponification. Upon saponification, samples were allowed to cool for about 15 min, and then an addition of 4 mL of hexane containing 0.1% butylated hydroxytoluene (w/v) and 2 mL of deionized water was added. The mixture was vortexed for 20 s and centrifuged at 1600 rpm at 25 °C for 15 min. The upper layer was collected following centrifugation and dried under nitrogen at 37 °C. The dried sample was then rinsed twice with hexane, dried, and reconstituted with 100 µL of acetonitrile-methanol. The reconstituted sample was centrifuged for 2 min to remove any possible precipitation. For UPLC analysis, 10 µL of the sample was injected into the Waters Acquity UPLC HSS T3 column. Solvent A was acetonitrile: methanol (50:50, v/v), and solvent B was 100% isopropanol. The mobile phase was made up of solvent A and solvent B in a volume ratio of 95:5 (v/v). The flow rate was set as 0.5 mL/min, and the column temperature was maintained at 35 °C. The detection wavelength was set at 446 nm. Retinyl acetate (Sigma-Aldrich, St. Louis, MO, USA) was used as the internal standard.
Bioavailability is defined as the rate and range of the active compound to the systemic circulation through a single oral administration. It can be evaluated by pharmacokinetic parameters derived from the compound kinetic curve (serum concentration vs. time). In the acute dosing study, pharmacokinetic parameters, including maximum lutein concentration (Cmax), time to reach Cmax (Tmax), and area under the time-concentration curve (AUC0–24) were determined. Cmax and Tmax were read directly from the serum lutein kinetic curve. The area under the time-concentration curve (AUC0–24) was calculated by trapezoid rule with linear interpolation using GraphPad Prism 8.0 (San Diego, CA, USA). […]

- Serum lutein concentration (0.5 h after single oral dose): 0.00 ± 0.00 nmol/L
- Serum lutein concentration (6 h after single oral dose): 132.91 ± 64.96 nmol/L
- Serum lutein concentration (24 h after single oral dose): 43.16 ± 8.53 nmol/L
- Tmax, time to reach Cmax (serum) (single oral dose): 4 h
- Cmax (single oral dose, read-out: Cmax, maximum serum lutein concentration): 145 ± 49 nM
- AUC0–24 (single oral dose, serum): 1987 ± 247.90 nmol/L∗h
Substance: Lutein ester [Free Lutein]
